Drawing on PubChem BioAssay AID180 (DTP/NCI, 2004), this text covers T/C for 10 molecules.

Values joined by “and” are separate entries in the source; they are usually repeats but may differ in a detail not shown here. Identical values can stand only once.

For the test, the system named is BDF1 mice, Adenocarcinoma 755 s.c., tumor weight T/C. The test is described as follows: NCI In Vivo Anticancer Drug Screen. Data for tumor model Adenocarcinoma 755 (subcutaneous) in B6D2F1 (BDF1) mice. Conditions: endpoint: mean tumor weight, higher = larger tumour. On the procedure: The antitumor activity of compounds was measured in mice bearing transplantable tumors. Survival or tumor size were measured and the results are expressed as the measurement made in the treated group (T) divided by the measurement made in the vehicle treated control group (C). The tumor model used in this assay is Adenocarcinoma 755 (subcutaneous) in B6D2F1 (BDF1) mice

The mark [1] stands for this setting: dose: 60.0 mg/kg/injection, schedule: Q01DX011 (ip), vehicle: methylcellulose (MC).
[2] abbreviates: dose: 120.0 mg/kg/injection, schedule: Q01DX011 (ip), vehicle: methylcellulose (MC).
The mark [3] stands for this setting: dose: 25.0 mg/kg/injection, schedule: Q01DX011 (ip), vehicle: methylcellulose (MC).

For `O=C(N/N=C\c1ccc(Br)cc1)c1ccncc1`, the T/C runs as follows: (dose: 30.0 mg/kg/injection, schedule: Q01DX011 (ip), vehicle: methylcellulose (MC)) 52 % of control; under setting [1], 52 % of control; under setting [2], 62 % of control; (dose: 240.0 mg/kg/injection, schedule: Q01DX011 (ip), vehicle: methylcellulose (MC)) 37 % of control; (dose: 500.0 mg/kg/injection, schedule: Q01DX011 (ip), vehicle: methylcellulose (MC)) 64 % of control.
Consider `COc1cc(C(=O)O)nc(N)n1`, for which the T/C (dose: 15.0 mg/kg/injection, schedule: Q01DX011 (ip), vehicle: saline) is 111 % of control; the T/C (dose: 125.0 mg/kg/injection, schedule: Q01DX011 (ip), vehicle: saline) was 100 % of control; the T/C (dose: 250.0 mg/kg/injection, schedule: Q01DX011 (ip), vehicle: saline) was 161 % of control.
On to `CC1CC(C)C(=O)C(C(=O)CC2CC(=O)NC(=O)C2)C1` (configuration not stated), for which the T/C (dose: 125.0 mg/kg/injection, schedule: Q01DX011 (ip), vehicle: carboxymethylcellulose (CMC)) is 67 % of control.
Regarding `CC1CCCN(/N=N/c2nc3c([nH]2)c(=O)n(C)c(=O)n3C)C1` (configuration not stated), the T/C by setting is: under setting [3], 66 % of control; (dose: 75.0 mg/kg/injection, schedule: Q01DX011 (ip), vehicle: methylcellulose (MC)) 61 % of control.
For the molecule `NC(=O)OCCI`, the T/C reads like this: (dose: 3.1 mg/kg/injection, schedule: Q01DX011 (ip), vehicle: methylcellulose (MC)) 47 % of control; (dose: 12.5 mg/kg/injection, schedule: Q01DX011 (ip), vehicle: methylcellulose (MC)) 52 % of control and 61 % of control; under setting [3], 31 % of control and 47 % of control; (dose: 50.0 mg/kg/injection, schedule: Q01DX011 (ip), vehicle: methylcellulose (MC)) 7 % of control; (dose: 100.0 mg/kg/injection, schedule: Q01DX011 (ip), vehicle: methylcellulose (MC)) 1 % of control.
For the molecule `[N-]=[N+]=C1C(=O)NC(=O)N2C3CC(O)C(COC12)O3` (configuration not stated), the T/C runs as follows: (dose: 30.0 mg/kg/injection, schedule: Q01DX011 (ip), vehicle: saline) 87 % of control; (dose: 60.0 mg/kg/injection, schedule: Q01DX011 (ip), vehicle: saline) 80 % of control; (dose: 120.0 mg/kg/injection, schedule: Q01DX011 (ip), vehicle: saline) 97 % of control; (dose: 240.0 mg/kg/injection, schedule: Q01DX011 (ip), vehicle: saline) 68 % of control; (dose: 400.0 mg/kg/injection, schedule: Q01DX011 (ip), vehicle: carboxymethylcellulose (CMC)) 40 % of control.
Regarding `[I][Hg][CH2]C1COC([CH2][Hg][I])CO1` (configuration not stated), the T/C was 96 % of control (dose: 0.8 mg/kg/injection, schedule: Q#A X022 (ip), vehicle: carboxymethylcellulose (CMC)); 43 % of control (dose: 1.25 mg/kg/injection, schedule: Q#A X022 (ip), vehicle: carboxymethylcellulose (CMC)); 84 % of control (dose: 1.9 mg/kg/injection, schedule: Q#A X022 (ip), vehicle: carboxymethylcellulose (CMC)); 35 % of control and 50 % of control (dose: 2.85 mg/kg/injection, schedule: Q#A X022 (ip), vehicle: carboxymethylcellulose (CMC)); 154 % of control (dose: 2.9 mg/kg/injection, schedule: Q01DX006 (iv), vehicle: carboxymethylcellulose (CMC)); 36 % of control (dose: 4.3 mg/kg/injection, schedule: Q#A X022 (ip), vehicle: carboxymethylcellulose (CMC)). Moreover, the T/C is, setting by setting: (dose: 4.4 mg/kg/injection, schedule: Q01DX006 (iv), vehicle: carboxymethylcellulose (CMC)) 90 % of control; (dose: 6.5 mg/kg/injection, schedule: Q#A X022 (ip), vehicle: carboxymethylcellulose (CMC)) 23 % of control; (dose: 6.6 mg/kg/injection, schedule: Q01DX006 (iv), vehicle: carboxymethylcellulose (CMC)) 95 % of control; (dose: 10.0 mg/kg/injection, schedule: Q01DX006 (iv), vehicle: carboxymethylcellulose (CMC)) 78 % of control; (dose: 22.0 mg/kg/injection, schedule: Q03DX004 (ip), vehicle: carboxymethylcellulose (CMC)) 62 % of control; (dose: 24.0 mg/kg/injection, schedule: Q01DX011 (oral), vehicle: carboxymethylcellulose (CMC)) 71 % of control. Moreover, the T/C (dose: 25.0 mg/kg/injection, schedule: Q01DX011 (oral), vehicle: methylcellulose (MC)) was 75 % of control; the T/C (dose: 35.0 mg/kg/injection, schedule: Q01DX001 (ip), vehicle: carboxymethylcellulose (CMC)) is 96 % of control; the T/C (dose: 35.0 mg/kg/injection, schedule: Q01DX011 (oral), vehicle: carboxymethylcellulose (CMC)) was 92 % of control; the T/C (dose: 35.0 mg/kg/injection, schedule: Q03DX004 (ip), vehicle: carboxymethylcellulose (CMC)) is 69 % of control; the T/C (dose: 35.0 mg/kg/injection, schedule: Q07DX002 (ip), vehicle: carboxymethylcellulose (CMC)) is 77 % of control; the T/C (dose: 50.0 mg/kg/injection, schedule: Q01DX011 (oral), vehicle: methylcellulose (MC)) was 86 % of control. Moreover, the T/C by setting is: (dose: 50.0 mg/kg/injection, schedule: Q03DX004 (ip), vehicle: carboxymethylcellulose (CMC)) 51 % of control; (dose: 55.0 mg/kg/injection, schedule: Q01DX011 (oral), vehicle: carboxymethylcellulose (CMC)) 81 % of control; under setting [1], 15 % of control; (dose: 80.0 mg/kg/injection, schedule: Q01DX011 (oral), vehicle: carboxymethylcellulose (CMC)) 78 % of control; (dose: 85.0 mg/kg/injection, schedule: Q01DX001 (ip), vehicle: carboxymethylcellulose (CMC)) 89 % of control; (dose: 100.0 mg/kg/injection, schedule: Q01DX011 (oral), vehicle: methylcellulose (MC)) 74 % of control. The T/C reads like this: under setting [2], 60 % of control; (dose: 160.0 mg/kg/injection, schedule: Q01DX011 (im), vehicle: carboxymethylcellulose (CMC)) 36 % of control; (dose: 160.0 mg/kg/injection, schedule: Q01DX011 (sc), vehicle: carboxymethylcellulose (CMC)) 42 % of control; (dose: 240.0 mg/kg/injection, schedule: Q01DX011 (sc), vehicle: carboxymethylcellulose (CMC)) 8 % of control; (dose: 360.0 mg/kg/injection, schedule: Q01DX011 (im), vehicle: carboxymethylcellulose (CMC)) 10 % of control.
Regarding `Cn1c(=O)c2[nH]c(CCl)nc2n(C)c1=O`, the T/C under setting [3] was 86 % of control.
Regarding `O=C(OCC1OC(n2cnc3c(=O)[nH]c(=O)[nH]c32)C(OC(=O)c2ccccc2)C1OC(=O)c1ccccc1)c1ccccc1` (configuration not stated), the T/C (dose: 30.0 mg/kg/injection, schedule: Q01DX011 (ip), vehicle: carboxymethylcellulose (CMC)) is 105 % of control; the T/C (dose: 60.0 mg/kg/injection, schedule: Q01DX011 (ip), vehicle: carboxymethylcellulose (CMC)) is 78 % of control; the T/C (dose: 240.0 mg/kg/injection, schedule: Q01DX011 (ip), vehicle: carboxymethylcellulose (CMC)) is 59 % of control.
As for `CC(=O)OCC(=O)[C@@]1(O)CC[C@H]2[C@@H]3CCC4=CC(=O)C=C[C@]4(C)[C@@]3(F)[C@@H](O)C[C@@]21C`, the T/C was 90 % of control (dose: 0.07 mg/kg/injection, schedule: Q01DX011 (sc), vehicle: steriod suspending solution); 77 % of control (dose: 0.14 mg/kg/injection, schedule: Q01DX011 (sc), vehicle: steriod suspending solution); 41 % of control (dose: 0.28 mg/kg/injection, schedule: Q01DX011 (sc), vehicle: steriod suspending solution); 54 % of control (dose: 1.12 mg/kg/injection, schedule: Q01DX011 (sc), vehicle: steriod suspending solution); 38 % of control (dose: 2.25 mg/kg/injection, schedule: Q01DX011 (sc), vehicle: steriod suspending solution); 26 % of control and 38 % of control (dose: 4.5 mg/kg/injection, schedule: Q01DX011 (sc), vehicle: steriod suspending solution). Also, the T/C runs as follows: (dose: 9.0 mg/kg/injection, schedule: Q01DX011 (sc), vehicle: steriod suspending solution) 21 % of control; (dose: 18.0 mg/kg/injection, schedule: Q01DX011 (sc), vehicle: steriod suspending solution) 17 % of control; (dose: 24.0 mg/kg/injection, schedule: Q01DX011 (sc), vehicle: steriod suspending solution) 9 % of control and 23 % of control; (dose: 25.0 mg/kg/injection, schedule: Q01DX011 (sc), vehicle: steriod suspending solution) 23 % of control and 28 % of control; (dose: 36.0 mg/kg/injection, schedule: Q01DX011 (sc), vehicle: steriod suspending solution) 11 % of control; (dose: 50.0 mg/kg/injection, schedule: Q01DX011 (sc), vehicle: steriod suspending solution) 13 % of control and 24 % of control. In addition, the T/C (dose: 100.0 mg/kg/injection, schedule: Q01DX011 (sc), vehicle: steriod suspending solution) is 9 % of control and 11 % of control.

As a reminder, the T/C is the result in the treated group divided by that in the control group, in per cent.
